Assay results as given in US20050171116A1, “Enhancing the efficacy of tubercular drugs” (priority 2004, published 2005).

How the values were obtained:
Type in all cases: cell-based, Mycobacterium Tuberculosis
Details in all cases: LJ medium, in vitro
[1] = tested on: Rifampicin-resistant strains of MTB
[2] = tested on: Isoniazid-Resistant strains of MTB
[3] = tested on: Multi-Drug-Resistant strains of MTB

Measured: antibacterial efficacy

Cc1c(C)c2c(c(C)c1O)CC[C@@](C)(CCC[C@H](C)CCC[C@H](C)CCCC(C)C)O2 [Factor Alpha tx, α-tocopherol]
effective: all assays above
